Experimental data published in patent US9725442B2, “Heterocyclic derivative having PGD2 receptor antagonist activity” (Shionogi & Co., Ltd., priority 2011, dated 2017).
pIC50, pKi: −log10 of the molar value. Read-outs that look alike come from different tables or passages of the source.

How the values were obtained:
Human DP1 receptor = Human DP1 receptor (Homo sapiens (Human), UniProt Q13258); experiment: Human DP1 inhibitory activity in DP1-expressing cell (PGD2-induced cAMP); type: cell-based; details: category of cAMP IC50, human DP1 receptor expressing Jurkut cell
Experimental: Compounds were categorized as AA (cAMP is less than 100 nM) and A (cAMP is more than 100 nM and less than 5000 nM) as shown in Table 99 and 100.

CRTH2 = CRTH2 (Homo sapiens (Human), UniProt Q9Y5Y4); experiment: CRTH2 receptor binding inhibitory activity ([3H]-PGD2 displacement, membranes of CRTH2-expressing K562 cell)
Experimental: Cell membrane was prepared from CRTH2-expressing K562 cell. The cell membrane (20 μg/well) was mixed with reaction buffer (50 mM Tris/HCl, pH 7.4, 10 mM MgCl2). Then, [^3H]-PGD2 was added to the mixture and incubated for 60 min at room temperature. […] Then, the mixture was filtrated with glass paper immediately. The filter paper was washed several times and radio activity on the filter was measured. Specific binding was defined as difference between total and non-specific binding (radio activity with 10 μM PGD2). Ki values for each compound were calculated from displacement curve.

[1] = CRTH2 receptor binding, [3H]-PGD2 displacement, membrane of CRTH2-expressing K562 cell, categorized AAAA/AAA, read-out: Ki
[2] = [3H]-PGD2 displacement, membrane of CRTH2-expressing K562 cell, read-out: Ki

Chain of CRTH2 (Q9Y5Y4 whole entry): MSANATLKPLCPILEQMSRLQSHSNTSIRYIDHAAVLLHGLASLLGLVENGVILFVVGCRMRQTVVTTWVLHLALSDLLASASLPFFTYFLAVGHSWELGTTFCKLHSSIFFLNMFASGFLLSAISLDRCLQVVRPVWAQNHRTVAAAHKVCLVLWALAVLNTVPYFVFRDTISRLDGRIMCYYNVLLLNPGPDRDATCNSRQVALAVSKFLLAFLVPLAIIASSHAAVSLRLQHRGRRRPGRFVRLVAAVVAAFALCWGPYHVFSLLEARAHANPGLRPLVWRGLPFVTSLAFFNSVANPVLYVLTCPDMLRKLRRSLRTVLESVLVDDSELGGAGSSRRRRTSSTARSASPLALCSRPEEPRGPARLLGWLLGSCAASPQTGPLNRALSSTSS
Chain of Human DP1 receptor (Q13258 whole entry): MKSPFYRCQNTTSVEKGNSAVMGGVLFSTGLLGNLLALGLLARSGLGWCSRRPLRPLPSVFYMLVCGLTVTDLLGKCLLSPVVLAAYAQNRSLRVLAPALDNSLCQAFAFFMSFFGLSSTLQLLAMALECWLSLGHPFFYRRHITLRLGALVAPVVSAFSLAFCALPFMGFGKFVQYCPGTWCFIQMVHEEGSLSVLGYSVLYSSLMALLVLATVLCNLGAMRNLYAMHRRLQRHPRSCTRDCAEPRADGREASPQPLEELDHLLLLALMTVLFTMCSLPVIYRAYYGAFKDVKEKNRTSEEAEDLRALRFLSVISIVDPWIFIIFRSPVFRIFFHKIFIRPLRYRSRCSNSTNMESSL

Row | pIC50 (Human DP1 receptor) | pKi (CRTH2; [1]) | pKi (CRTH2; [2]) | Compound | pKi (CRTH2)
1 | 5.30 to 7.00 | > 7.00 | – | CC(C)Oc1ccc(S(=O)(=O)N2C[C@@H](CCO)[C@@H](n3nc(CC(=O)O)c4ccc(F)cc43)C2)cc1 [Compound I-40] | –
2 | 5.30 to 7.00 | > 7.00 | – | CC(C)Oc1ccc(S(=O)(=O)N2C[C@@H](C3CC3)[C@@H](n3nc(CC(=O)O)c4ccc(F)cc43)C2)cc1 [Compound I-41] | –
3 | 5.30 to 7.00 | > 7.00 | – | CC(C)Oc1ccc(S(=O)(=O)N2C[C@@H](CF)[C@@H](n3nc(CC(=O)O)c4ccc(F)cc43)C2)cc1 [Compound I-42] | –
4 | 5.30 to 7.00 | > 7.00 | – | C=C1CN(S(=O)(=O)c2ccc(OC(C)C)cc2)CC1n1nc(CC(=O)O)c2ccc(F)cc21 (centres unmarked) [Compound I-43] | –
5 | 5.30 to 7.00 | > 7.00 | – | CC(C)Oc1ccc(S(=O)(=O)N2C[C@@H](CC(F)F)[C@@H](n3nc(CC(=O)O)c4ccc(F)cc43)C2)cc1 [Compound I-44] | –
6 | 5.30 to 7.00 | > 7.00 | – | CC(C)Oc1ccc(S(=O)(=O)N2C[C@@H](CCF)[C@@H](n3nc(CC(=O)O)c4ccc(F)cc43)C2)cc1 [Compound I-45] | –
7 | > 7.00 | > 7.00 | – | CC(C)Oc1ccc(S(=O)(=O)N2C[C@H](n3nc(CC(=O)O)c4ccc(F)cc43)C[C@@H]2C)cc1 [Compound I-46] | –
8 | 5.30 to 7.00 | > 7.00 | – | C[C@@H]1CN(S(=O)(=O)c2ccc(F)cc2)C[C@@H]1n1nc(CC(=O)O)c2ccc(F)cc21 [Compound I-48] | –
9 | > 7.00 | > 7.00 | – | C[C@@H]1CN(S(=O)(=O)c2ccc(C3CC3)cc2Cl)C[C@@H]1n1nc(CC(=O)O)c2ccc(F)cc21 [Compound I-53] | –
10 | 5.30 to 7.00 | > 7.00 | – | CC(C)Oc1ccc(S(=O)(=O)N2C[C@H](n3nc(CC(=O)O)c4ccc(F)cc43)CC23CC3)cc1 [Compound I-54] | –
11 | 5.30 to 7.00 | 5.30 to 7.00 | – | CC(C)Oc1ccc(S(=O)(=O)N2C[C@H](n3nc(CC(=O)O)c4ccc(F)cc43)C[C@@H]2c2nc[nH]n2)cc1 [Compound I-55] | –
12 | > 7.00 | > 7.00 | – | CC(C)Oc1ccc(S(=O)(=O)N2C[C@@H](C)[C@@H](n3nc(CC(=O)O)c4ccc(F)cc43)C2)c(C#N)c1 [Compound I-58] | –
13 | 5.30 to 7.00 | > 7.00 | 7.64 | CC(C)Oc1ccc(S(=O)(=O)N2C[C@@H](C)[C@@H](n3nc(CC(=O)O)c4cccc(F)c43)C2)cc1 [Compound I-59] | –
14 | > 7.00 | 5.30 to 7.00 | – | CC(C)Oc1ccc(S(=O)(=O)N2C[C@H](n3nc(CC(=O)O)c4cccc(F)c43)C[C@@H]2C)cc1 [Compound I-60] | –
15 | 5.30 to 7.00 | > 7.00 | – | CC(C)Oc1ccc(S(=O)(=O)N2C[C@@H](C)[C@@H](n3nc(CC(=O)O)c4cccc(Cl)c43)C2)cc1 [Compound I-61] | –
16 | > 7.00 | > 7.00 | – | Cc1ccc2c(CC(=O)O)nn([C@H]3CN(S(=O)(=O)c4ccc(OC(C)C)cc4)C[C@H]3C)c2c1 [Compound I-62] | –
17 | > 7.00 | – | 8.51 | Cc1ccc2c(CC(=O)O)nn([C@H]3CN(S(=O)(=O)c4ccc(OC(C)C)cc4)C[C@H]3C)c2c1 [Compound I-63] | –
18 | 5.30 to 7.00 | > 7.00 | – | CC(C)Oc1ccc(S(=O)(=O)N2C[C@@H](CO)[C@@H](n3nc(CC(=O)O)c4ccc(F)cc43)C2)cc1 [Compound I-64] | –
19 | 5.30 to 7.00 | > 7.00 | – | CON=C[C@@H]1CN(S(=O)(=O)c2ccc(OC(C)C)cc2)C[C@@H]1n1nc(CC(=O)O)c2ccc(F)cc21 [Compound I-65] | –
20 | > 7.00 | > 7.00 | – | CC(C)Oc1ccc(S(=O)(=O)N2C[C@@H](C)[C@@H](n3nc(CC(=O)O)c4cc(F)c(F)cc43)C2)cc1 [Compound I-68] | –
21 | > 7.00 | 5.30 to 7.00 | – | CC(C)Oc1ccc(S(=O)(=O)N2C[C@@H](C)[C@@H](n3nc(CC(=O)O)c4cc(F)ccc43)C2)cc1 [Compound I-69] | –
22 | 5.30 to 7.00 | 5.30 to 7.00 | – | CC(C)Oc1ccc(S(=O)(=O)N2CC[C@H](n3nc(CC(=O)O)c4ccc(F)cc43)C[C@H]2CO)cc1 [Compound I-72] | –
23 | > 7.00 | 5.30 to 7.00 | – | CC(C)Oc1ccc(S(=O)(=O)N2[C@H](C)C[C@H](n3nc(CC(=O)O)c4ccc(F)cc43)C[C@@H]2C)cc1 [Compound I-73] | –
24 | > 7.00 | 5.30 to 7.00 | – | CC(C)Oc1ccc(S(=O)(=O)N2CC[C@H](n3nc(CC(=O)O)c4ccc(F)cc43)C[C@@H]2C)cc1 [Compound I-76] | –

Row | pIC50 (Human DP1 receptor) | pKi (CRTH2; [1]) | pKi (CRTH2; [2]) | Compound | pKi (CRTH2)
25 | 5.30 to 7.00 | > 7.00 | 7.32 | C[C@H]1C[C@@H](n2nc(CC(=O)O)c3ccc(F)cc32)CCN1S(=O)(=O)c1ccc(F)cc1 [Compound I-77] | –
26 | 5.30 to 7.00 | 5.30 to 7.00 | – | CC(C)Oc1ccc(S(=O)(=O)N2CC[C@H](n3nc(CC(=O)O)c4ccc(F)cc43)C[C@H]2C)cc1 [Compound I-78] | –
27 | 5.30 to 7.00 | 5.30 to 7.00 | – | C[C@@H]1C[C@@H](n2nc(CC(=O)O)c3ccc(F)cc32)CCN1S(=O)(=O)c1ccc(F)cc1 [Compound I-79] | –
28 | 5.30 to 7.00 | > 7.00 | – | CC(C)Oc1ccc(S(=O)(=O)N2C[C@H](n3nc(CC(=O)O)c4ccc(F)cc43)[C@@](C)(O)C2)cc1 [Compound I-84] | –
29 | 5.30 to 7.00 | > 7.00 | – | CC(C)Oc1ccc(S(=O)(=O)N2C[C@H](n3nc(CC(=O)O)c4ccccc43)[C@@](C)(O)C2)cc1 [Compound I-86] | –
30 | 5.30 to 7.00 | > 7.00 | – | Cc1ccc2c(CC(=O)O)nn([C@H]3CN(S(=O)(=O)c4ccc(OC(C)C)cc4)C[C@]3(C)O)c2c1 [Compound I-87] | –
31 | > 7.00 | > 7.00 | – | CC(C)Oc1ccc(S(=O)(=O)N2C[C@H](n3nc(CC(=O)O)c4ccccc43)[C@](C)(F)C2)cc1 [Compound I-88] | –
32 | > 7.00 | 5.30 to 7.00 | – | CC(C)Oc1ccc(S(=O)(=O)N2C[C@H](n3nc(CC(=O)O)c4ccccc43)C[C@@H]2C(F)F)cc1 [Compound I-90] | –
33 | > 7.00 | > 7.00 | – | CC(C)Oc1ccc(S(=O)(=O)N2C[C@H](n3nc(CC(=O)O)c4ccccc43)C[C@@H]2C)cc1 [Compound I-91] | –
34 | > 7.00 | 5.30 to 7.00 | – | Cc1ccc2c(CC(=O)O)nn([C@@H]3C[C@H](C(F)F)N(S(=O)(=O)c4ccc(OC(C)C)cc4)C3)c2c1 [Compound I-92] | –
35 | > 7.00 | 5.30 to 7.00 | – | CC(C)Oc1ccc(S(=O)(=O)N2C[C@H](n3nc(CC(=O)O)c4ccc(Cl)cc43)C[C@@H]2C(F)F)cc1 [Compound I-93] | –
36 | > 7.00 | > 7.00 | – | Cc1ccc2c(CC(=O)O)nn([C@@H]3C[C@H](C)N(S(=O)(=O)c4ccc(OC(C)C)cc4)C3)c2c1 [Compound I-94] | –
37 | > 7.00 | > 7.00 | – | CC(C)Oc1ccc(S(=O)(=O)N2C[C@H](n3nc(CC(=O)O)c4ccc(Cl)cc43)C[C@@H]2C)cc1 [Compound I-95] | –
38 | > 7.00 | > 7.00 | – | C[C@@H]1CN(S(=O)(=O)c2ccc(OC(F)F)cc2)C[C@@H]1n1nc(CC(=O)O)c2ccccc21 [Compound I-98] | –
39 | > 7.00 | > 7.00 | – | CC(C)Oc1ccc(S(=O)(=O)N2C[C@@H](C)[C@@H](n3nc(CC(=O)O)c4ccccc43)C2)cn1 [Compound I-99] | –
40 | 5.30 to 7.00 | > 7.00 | – | CC(C)Oc1ccc(S(=O)(=O)N2C[C@@H](C)[C@@H](n3nc(/C=C/C(=O)O)c4ccc(F)cc43)C2)cc1 [Compound I-100] | –
41 | 5.30 to 7.00 | 5.30 to 7.00 | – | CC(C)Oc1ccc(S(=O)(=O)N2C[C@@H](C)[C@@H](n3nc(CCC(=O)O)c4ccc(F)cc43)C2)cc1 [Compound I-101] | –
42 | > 7.00 | > 7.00 | – | C=C[C@H]1C[C@@H](n2nc(CC(=O)O)c3ccc(F)cc32)CN1S(=O)(=O)c1ccc(OC(C)C)cc1 [Compound I-102] | –
43 | > 7.00 | > 7.00 | – | CC[C@H]1C[C@@H](n2nc(CC(=O)O)c3ccc(F)cc32)CN1S(=O)(=O)c1ccc(OC(C)C)cc1 [Compound I-103] | –
44 | > 7.00 | > 7.00 | 7.80 | CC(C)Oc1ccc(S(=O)(=O)N2C[C@H](n3nc(CC(=O)O)c4ccc(F)cc43)C[C@]2(C)C#N)cc1 [Compound I-104] | –
45 | > 7.00 | > 7.00 | – | CC(C)Oc1ccc(S(=O)(=O)N2C[C@H](n3nc(CC(=O)O)c4ccc(F)cc43)C[C@@]2(C)C#N)cc1 [Compound I-105] | –
46 | > 7.00 | > 7.00 | – | CCOc1ccc(S(=O)(=O)N2C[C@@H](C)[C@@H](n3nc(CC(=O)O)c4ccc(F)cc43)C2)cc1 [Compound I-106] | –
47 | > 7.00 | > 7.00 | – | C[C@@H]1CN(S(=O)(=O)c2ccc(OC(F)F)cc2)C[C@@H]1n1nc(CC(=O)O)c2ccc(F)cc21 [Compound I-107] | –
48 | > 7.00 | > 7.00 | – | CCOc1ccc(S(=O)(=O)N2C[C@@H](C)[C@@H](n3nc(CC(=O)O)c4ccc(F)cc43)C2)cn1 [Compound I-108] | –

Row | Compound | pIC50 (Human DP1 receptor) | pKi (CRTH2; [1]) | pKi (CRTH2; [2]) | pKi (CRTH2)
49 | O=C(O)Cc1nn([C@@H]2C[C@H]3CC[C@@H](C2)N3S(=O)(=O)c2ccc(F)cc2)c2cc(F)ccc12 [Compound I-80] | 5.30 to 7.00 | – | – | 5.30 to 7.00
50 | CC(C)Oc1ccc(S(=O)(=O)N2[C@@H]3CC[C@H]2C[C@H](n2nc(CC(=O)O)c4ccc(F)cc42)C3)cc1 [Compound I-81] | 5.30 to 7.00 | – | – | 5.30 to 7.00
51 | O=C(O)Cc1nn([C@H]2C[C@H]3CC[C@@H](C2)N3S(=O)(=O)c2ccc(F)cc2)c2cc(F)ccc12 [Compound I-82] | 5.30 to 7.00 | – | – | 5.30 to 7.00
52 | CC(C)Oc1ccc(S(=O)(=O)N2[C@@H]3CC[C@H]2C[C@@H](n2nc(CC(=O)O)c4ccc(F)cc42)C3)cc1 [Compound I-83] | > 7.00 | – | – | 5.30 to 7.00
